Data set [1] is described as follows: In vitro cytotoxicity with L-6 cells (Alamar Blue). Format: cell-based, rat. How it is done:
(§1) Serial drug dilutions of 11 3-fold dilution steps covering a range from 100 to 0.002 μg/mL were prepared. After 70 h of incubation, the plates were inspected under an inverted microscope to assure the growth of the controls and sterile conditions. Then, 0.01 mL of Alamar Blue was added to each well and the plates incubated for another 2 h. The plates were read with a Spectramax Gemini XS microplate fluorometer (Molecular Devices Cooperation, Sunnyvale, CA, USA) using an excitation wavelength of 536 nm and an emission wavelength of 588 nm. The IC50 values were calculated by linear regression from the sigmoidal dose inhibition curves using SoftmaxPro software (Molecular Devices Cooperation, Sunnyvale, CA, USA). Podophyllotoxin (Sigma P4405) was used as control.

A further data set concerns P. falciparum NF54. The data set is described as follows: In vitro microplate assay against P. falciparum (3H-hypoxanthine incorporation). The note with it: for S.I. = IC50 (Cyt.)/IC50 (P.f. NF54): selectivity index: L-6 cells IC50 / P.f. NF54 IC50. Format: cell-based, Plasmodium falciparum. How it is done: Chloroquine (Sigma C6628) was used as standard. Compounds were dissolved in DMSO at 10 mg/mL and added to parasite cultures incubated in RPMI 1640 medium without hypoxanthine, supplemented with HEPES (5.94 g/L), NaHCO3 (2.1 g/L), neomycin (100 U/mL), Albumax (5 g/L) and washed human red cells A^+ at 2.5% hematocrit (0.3% parasitemia). Serial drug dilutions of 11 3-fold dilution steps covering a range from 100 to 0.002 μg/mL were prepared. […] After 48 h, 0.05 mL of ^3H-hypoxanthine (=0.5 μCi) was added to each well of the plate. The plates were incubated for a further 24 h under the same conditions. The plates were then harvested with a Betaplate cell harvester (Wallac, Zurich, Switzerland). The red blood cells were transferred onto a glass fiber filter and washed with distilled water. The dried filters were inserted into a plastic foil with 10 mL of scintillation fluid and counted in a Betaplate liquid scintillation counter (Wallac, Zurich, Switzerland). IC50 values were calculated from sigmoidal inhibition curves by linear regression using Microsoft Excel. Artemisinin and chloroquine were used as control.

The subject of another data set is L-6 cells. The data set is described as follows: In vitro cytotoxicity with L-6 cells (Alamar Blue). Format: cell-based, rat. How it is done:
as §1

The mark [2] stands for this setting: rat skeletal myoblasts, average of four determinations, read-out: Cytotoxicity L-6 Cells IC50.
Setting [3] is: rat, Cytotoxicity L-6 Cells IC50.
Where [4] appears, read: Plasmodium falciparum, chloroquine-sensitive strain NF54, erythrocytic stages, average of four determinations, read-out: P.f. NF54 IC50.

As a reminder, the IC50 is the point on the concentration scale where inhibition reaches its midpoint.

Where two headings read alike, the source gives them in different places.

Regarding `CCN(CC)CCCC(C)Nc1ccnc2cc(Cl)ccc12` (stereo not drawn) [CQ, chloroquine, reference compound], the IC50 at 72 h in data set [1] (setting [2]) was determined as 90.9 µM. Also, the concentration for half-maximal inhibition (IC50) in the data set with P. falciparum NF54 (Plasmodium falciparum, NF54, read-out: P.f. NF54 IC50) was found to be 0.0039 µM. For the same molecule, the “S.I. = IC50 (Cyt.)/IC50 (P.f. NF54)” value in the data set with P. falciparum NF54 is reported as 23,313.

`CCC(NCCNc1cc(OC)cc2cccnc12)c1nnnn1C(C)(C)C` (stereo not drawn) [Compound 7, N^1-(6-Methoxyquinolin-8-yl)-N^2-(1-(tert-butyl-1H-tetrazol-5-yl)propyl)ethan-1,2-diamine] had an IC50 at 72 h in data set [1] (setting [3]) of 144 µM. Moreover, the IC50 with P. falciparum NF54 (setting [4]) was 16 µM.

Consider `COc1cc(NCCNC(c2ccccc2)c2nnnn2C(C)(C)C)c2ncccc2c1` (stereo not drawn) [Compound 8, N^1-(6-Methoxyquinolin-8-yl)-N^2-((phenyl)(tert-butyl-1H-tetrazol-5-yl)methyl)ethan-1,2-diamine], for which, in data set [1] (setting [3]), inhibition was half-maximal at 58 µM (IC50 at 72 h). Also, the IC50 with P. falciparum NF54 (setting [4]) amounted to 6.09 µM. Further, the “S.I. = IC50 (Cyt.)/IC50 (P.f. NF54)” value with P. falciparum NF54 was found to be 9.52.

Turning to `COc1cc(NCCNC(c2ccc(F)cc2)c2nnnn2C(C)(C)C)c2ncccc2c1` (stereo not drawn) [Compound 9, N^1-((4-Fluorophenyl)(tert-butyl-1H-tetrazol-5-yl)methyl)-N^2-(6-methoxyquinolin-8-yl)ethan-1,2-diamine], in data set [1] (setting [3]), inhibition was half-maximal at 55.4 µM (IC50 at 72 h). Also, in the data set on P. falciparum NF54 (setting [4]), the IC50 came to 7.05 µM. Also, in the data set on P. falciparum NF54, the “S.I. = IC50 (Cyt.)/IC50 (P.f. NF54)” value is given as 7.86.

`COc1cc(NCCNC(c2ccc(Cl)cc2)c2nnnn2C(C)(C)C)c2ncccc2c1` (stereo not drawn) [Compound 10, N^1-((4-Chlorophenyl)(tert-butyl-1H-tetrazol-5-yl)methyl)-N^2-(6-methoxyquinolin-8-yl)ethan-1,2-diamine] showed an IC50 at 72 h in data set [1] (setting [3]) of 92.3 µM. Moreover, the IC50 in the data set with P. falciparum NF54 (setting [4]) stood at 5.34 µM. In the data set on P. falciparum NF54, the “S.I. = IC50 (Cyt.)/IC50 (P.f. NF54)” value is recorded as 17.29.

Consider `COc1cc(NCCNC(c2ccc(Br)cc2)c2nnnn2C(C)(C)C)c2ncccc2c1` (stereo not drawn) [Compound 11, N^1-((4-Bromophenyl)(tert-butyl-1H-tetrazol-5-yl)methyl)-N^2-(6-methoxyquinolin-8-yl)ethan-1,2-diamine], for which the IC50 at 72 h in data set [1] (setting [3]) is 34.1 µM. Besides, the IC50 with P. falciparum NF54 (setting [4]) was found to be 2.51 µM. Further, in the data set with P. falciparum NF54, the “S.I. = IC50 (Cyt.)/IC50 (P.f. NF54)” value is 13.57.

As to `CCC(Nc1cc(OC)cc2cccnc12)c1nnnn1C(C)(C)C` (stereo not drawn) [Compound 13, 6-Methoxy-N-(1-(1-tert-butyl-1H-tetrazol-5-yl)propyl)quinolin-8-amine], the concentration for half-maximal inhibition (IC50) at 72 h in data set [1] (setting [3]) was 91.1 µM. The IC50 in the data set with P. falciparum NF54 (setting [4]) is 23.6 µM. In addition, the “S.I. = IC50 (Cyt.)/IC50 (P.f. NF54)” value with P. falciparum NF54 turned out to be 3.86.

`COc1cc(NC(c2ccccc2)c2nnnn2C(C)(C)C)c2ncccc2c1` (stereo not drawn) [Compound 14, 6-Methoxy-N-((phenyl)(1-tert-butyl-1H-tetrazol-5-yl)methyl)quinolin-8-amine] displayed an IC50 at 72 h in data set [1] (setting [3]) of 49 µM. In addition, the 50% inhibitory concentration (IC50) with P. falciparum NF54 (setting [4]) is 5.12 µM. Further, the “S.I. = IC50 (Cyt.)/IC50 (P.f. NF54)” value in the data set with P. falciparum NF54 is 9.56.

On to `COc1cc(NC(c2ccc(F)cc2)c2nnnn2C(C)(C)C)c2ncccc2c1` (stereo not drawn) [Compound 15, N-((4-Fluorophenyl)(1-tert-butyl-1H-tetrazol-5-yl)methyl)-6-methoxyquinolin-8-amine], for which the IC50 at 72 h in data set [1] (setting [3]) lay within 119 to 124 µM. For the same molecule, the IC50 was 124 µM with L-6 cells (rat, 72 h) and 2.68 µM with P. falciparum NF54 (setting [4]).

As for `COc1cc(NC(c2ccc(Cl)cc2)c2nnnn2C(C)(C)C)c2ncccc2c1` (stereo not drawn) [Compound 16, N-((4-Chlorophenyl)(1-tert-butyl-1H-tetrazol-5-yl)methyl)-6-methoxyquinolin-8-amine], inhibition in data set [1] (setting [3]) was half-maximal at 236 µM (IC50 at 72 h). In addition, in the data set on P. falciparum NF54 (setting [4]), the 50% inhibitory concentration (IC50) was 0.743 µM. In addition, in the data set with P. falciparum NF54, the “S.I. = IC50 (Cyt.)/IC50 (P.f. NF54)” value is given as 318.3.

Regarding `COc1cc(NC(c2ccc(Br)cc2)c2nnnn2C(C)(C)C)c2ncccc2c1` (stereo not drawn) [Compound 17, N-((4-Bromophenyl)(1-tert-butyl-1H-tetrazol-5-yl)methyl)-6-methoxyquinolin-8-amine], inhibition in data set [1] (setting [3]) was half-maximal at 96.9 µM (IC50 at 72 h). In addition, the 50% inhibitory concentration (IC50) with P. falciparum NF54 (setting [4]) was found to be 0.464 µM. For the same molecule, in the data set with P. falciparum NF54, the “S.I. = IC50 (Cyt.)/IC50 (P.f. NF54)” value came to 208.8.

Regarding `COc1cc(NC(c2ccc(C(F)(F)F)cc2)c2nnnn2C(C)(C)C)c2ncccc2c1` (stereo not drawn) [Compound 18, 6-Methoxy-N-((1-tert-butyl-1H-tetrazol-5-yl)(4-(trifluoromethyl)phenyl)methyl)quinolin-8-amine], 176 µM corresponded to half-maximal inhibition in data set [1] (setting [3]) (IC50 at 72 h). In addition, the IC50 with P. falciparum NF54 (setting [4]) came out at 0.644 µM. The “S.I. = IC50 (Cyt.)/IC50 (P.f. NF54)” value in the data set on P. falciparum NF54 was 273.3.

Take `COc1cc(NC(c2ccc(C)cc2)c2nnnn2C(C)(C)C)c2ncccc2c1` (stereo not drawn) [Compound 19, 6-Methoxy-N-((4-methylphenyl)(1-tert-butyl-1H-tetrazol-5-yl)methyl)quinolin-8-amine]: the half-maximal inhibitory concentration (IC50) at 72 h in data set [1] (setting [3]) came out at 248 µM. The IC50 with P. falciparum NF54 (setting [4]) came out at 1.04 µM. Besides, the “S.I. = IC50 (Cyt.)/IC50 (P.f. NF54)” value in the data set with P. falciparum NF54 was determined as 238.9.

Turning to `COc1cc(NC(c2ccc(C(C)C)cc2)c2nnnn2C(C)(C)C)c2ncccc2c1` (stereo not drawn) [Compound 20, 6-Methoxy-N-((4-(propan-2-yl)phenyl)(1-tert-butyl-1H-tetrazol-5-yl)methyl)quinolin-8-amine], in data set [1] (setting [3]), the half-inhibitory concentration (IC50) at 72 h fell in the range of 119 to 124 µM. For the same molecule, the IC50 with L-6 cells (rat, 72 h) was found to be 119 µM; with P. falciparum NF54 (setting [4]) it was 2 µM.

`COc1cc(NC(c2cccc3ccccc23)c2nnnn2C(C)(C)C)c2ncccc2c1` (stereo not drawn) [Compound 21, 6-Methoxy-N-((naphthalen-1-yl)(1-tert-butyl-1H-tetrazol-5-yl)methyl)quinolin-8-amine] yielded an IC50 at 72 h in data set [1] (setting [3]) of 173 µM. In the data set with P. falciparum NF54 (setting [4]), the IC50 is 1.26 µM. Moreover, in the data set with P. falciparum NF54, the “S.I. = IC50 (Cyt.)/IC50 (P.f. NF54)” value is given as 137.6.

In data set [1] (setting [3]), `CCCCCCCC(Nc1cc(OC)cc2cccnc12)c1nnnn1C(C)(C)C` (stereo not drawn) [Compound 22, 6-Methoxy-N-(1-(1-tert-butyl-1H-tetrazol-5-yl)octyl)quinolin-8-amine] came in with an IC50 at 72 h of 54.7 µM. For the same molecule, the IC50 in the data set with P. falciparum NF54 (setting [4]) came out at 0.324 µM. In the data set on P. falciparum NF54, the “S.I. = IC50 (Cyt.)/IC50 (P.f. NF54)” value turned out to be 168.9.

As to `COc1cc([C@@H]2c3cc4c(cc3[C@H](O)[C@H]3COC(=O)[C@H]23)OCO4)cc(OC)c1OC` [POD, podophyllotoxin, reference compound], the IC50 in the data set on L-6 cells (setting [2]) came out at 0.012 µM.

For “N^1-(6-Methoxyquinolin-8-yl)-N^2-((tert-butyl-1H-tetrazol-5-yl)(2-(trifluoromethyl)phenyl) methyl)-ethan-1,2-diamine [Compound 12]”, the IC50 was found to be 22.3 µM in the data set on L-6 cells and 2.92 µM with P. falciparum NF54 (chloroquine-sensitive strain NF54, erythrocytic stages, average of four determinations, read-out: P.f. NF54 IC50). The “S.I. = IC50 (Cyt.)/IC50 (P.f. NF54)” value in the data set with P. falciparum NF54 was 7.64.

For the origin of these results see paper PMC8470823, “8-Amino-6-Methoxyquinoline—Tetrazole Hybrids: Impact of Linkers on Antiplasmodial Activity” (Molecules, 2021).
